# Data as given in patent US9447044B2, “Thioaryl derivatives as GPR120 agonists” (LG LIFE SCIENCES LTD., priority 2012, dated 2016).
# pEC50: −log10 of the molar value.
# Biological target: T1, hGPR120 (Homo sapiens, UniProt Q5NUL3)
# T1 construct: expressed in transfected cells; host or cells: CHO-K1
# T1 sequence (Q5NUL3 1-361): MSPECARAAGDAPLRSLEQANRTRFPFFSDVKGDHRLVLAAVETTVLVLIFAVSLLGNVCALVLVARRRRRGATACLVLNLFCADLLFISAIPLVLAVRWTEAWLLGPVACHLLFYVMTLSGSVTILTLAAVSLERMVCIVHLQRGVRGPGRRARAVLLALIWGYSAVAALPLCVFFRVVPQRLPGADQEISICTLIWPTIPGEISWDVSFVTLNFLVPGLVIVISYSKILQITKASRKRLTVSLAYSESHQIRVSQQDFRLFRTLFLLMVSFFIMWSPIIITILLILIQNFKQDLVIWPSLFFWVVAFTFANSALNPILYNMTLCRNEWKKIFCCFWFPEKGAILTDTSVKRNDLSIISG
# Assay: Measurement of activity of GPR120 agonist (cell-based assay), calcium fluorescence
# Details: CHO-K1 cells expressing Ga16 and hGPR120; Calcium 5 dye fluorescence; activity class
# Outline: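 CHO-K1 cells co-expressing Gα16 and hGPR120, loaded with Calcium 5 dye for 1 h at 37° C, received serially diluted agonists (final 0.5% DMSO). Fluorescence (Ex 485/Em 525 nm) was expressed as relative percent over 0.1% DMSO-only wells; activity binned as A >20 μM, B 20–2 μM, C 2–0.2 μM, D <0.2 μM.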
row,SMILES,pEC50
1,"CC(C)Sc1cccc(COc2ccc(CC(C)C(=O)O)cc2Cl)n1 (stereo not shown) [Example 93, 3-[3-chloro-4-(6-isopropylsulfanyl-pyridin-2-ylmethoxy)-phenyl]-2-methyl-propionic acid]",> 6.70
2,"CC(Cc1ccc(OCc2cccc(SC3CCCC3)n2)c(Cl)c1)C(=O)O (stereo not shown) [Example 94, 3-[3-chloro-4-(6-cyclopentylsulfanyl-pyridin-2-ylmethoxy)-phenyl]-2-methyl-propionic acid]",> 6.70
3,"CC(Cc1ccc(OCc2cccc(SC3CCC3)n2)c(Cl)c1)C(=O)O (stereo not shown) [Example 96, 3-[3-chloro-4-(6-cyclobutylsulfanyl-pyridin-2-ylmethoxy)-phenyl]-2-methyl-propionic acid]",> 6.70
4,"CC(C)Sc1ncccc1COc1ccc(C2CC2C(=O)O)cc1Cl (stereo not shown) [Example 97, 2-[3-chloro-4-(2-isopropylsulfanyl-pyridin-3-ylmethoxy)-phenyl]-cyclopropane carboxylic acid]",> 6.70
5,"O=C(O)C1CC1c1ccc(OCc2cccc(SCC3CC3)n2)c(Cl)c1 (stereo not shown) [Example 98, 2-[3-chloro-4-(6-cyclopropylmethylsulfanyl-pyridin-2-ylmethoxy)-phenyl]-cyclopropane carboxylic acid]",> 6.70
6,"CC(C)Sc1cccc(COc2ccc(C3CC3C(=O)O)cc2Cl)n1 (stereo not shown) [Example 99, 2-[3-chloro-4-(6-isopropylsulfanyl-pyridin-2-ylmethoxy)-phenyl]-cyclopropane carboxylic acid]",> 6.70
7,"O=C(O)C1CC1c1ccc(OCc2cccc(SC3CCCC3)n2)c(Cl)c1 (stereo not shown) [Example 100, 2-[3-chloro-4-(6-cyclopentylsulfanyl-pyridin-2-ylmethoxy)-phenyl]-cyclopropane carboxylic acid]",> 6.70
8,"O=C(O)C1CC1c1ccc(OCc2cccnc2SC2CCCC2)c(Cl)c1 (stereo not shown) [Example 101, 2-[3-chloro-4-(2-cyclopentylsulfanyl-pyridin-3-ylmethoxy)-phenyl]-cyclopropane carboxylic acid]",> 6.70
9,"O=C(O)C1CC1c1ccc(OCc2cccnc2SC2CCC2)c(Cl)c1 (stereo not shown) [Example 102, 2-[3-chloro-4-(2-cyclobutylsulfanyl-pyridin-3-ylmethoxy)-phenyl]-cyclopropane carboxylic acid]",> 6.70
10,"O=C(O)C1CC1c1ccc(OCc2cccc(SC3CCC3)n2)c(Cl)c1 (stereo not shown) [Example 103, 2-[3-chloro-4-(6-cyclobutylsulfanyl-pyridin-2-ylmethoxy)-phenyl]-cyclopropane carboxylic acid]",> 6.70
11,O=C(O)C1CC1c1ccc(OCc2cccc(SC3CCCC3)n2)cc1Cl (stereo not shown) [Example 104],5.70 to 6.70
12,"Cc1c(OCc2cccnc2SC(C)C)ccc(C2CC2C(=O)O)c1C (stereo not shown) [Example 105, 2-[4-(2-isopropylsulfanyl-pyridin-3-ylmethoxy)-2,3-dimethyl-phenyl]-cyclopropane carboxylic acid]",4.70 to 5.70
13,"Cc1c(OCc2cccnc2SCC2CC2)ccc(C2CC2C(=O)O)c1C (stereo not shown) [Example 106, 2-[4-(2-cyclopropylmethylsulfanyl-pyridin-3-ylmethoxy)-2,3-dimethyl-phenyl]-cyclopropane carboxylic acid]",< 4.70
14,"O=C(O)C1CC1c1ccc(OCc2cccnc2SCC2CC2)c(Cl)c1 (stereo not shown) [Example 107, 2-[3-chloro-4-(2-cyclopropylmethylsulfanyl-pyridin-3-ylmethoxy)-phenyl]-cyclopropane carboxylic acid]",> 6.70
15,"CCCSc1ncccc1COc1ccc(C2CC2C(=O)O)cc1Cl (stereo not shown) [Example 108, 2-[3-chloro-4-(2-propylsulfanyl-pyridin-3-ylmethoxy)-phenyl]-cyclopropane carboxylic acid]",> 6.70
16,"COc1ccc(COc2ccc(C3CC3C(=O)O)cc2Cl)c(SC(C)C)n1 (stereo not shown) [Example 109, 2-[3-chloro-4-(2-isopropylsulfanyl-6-methoxy-pyridin-3-ylmethoxy)-phenyl]-cyclopropane carboxylic acid]",5.70 to 6.70

row,SMILES,pEC50
1,"O=C(O)C1CC1Cc1cc(F)c(OCc2cccc(SC3CCCC3)n2)c(F)c1 (stereo not shown) [Example 110, 2-[4-(6-cyclopentylsulfanyl-pyridin-2-ylmethoxy)-3,5-difluoro-benzyl]-cyclopropane carboxylic acid]",5.70 to 6.70
2,"O=C(O)CC1COc2c1cc(F)c(OCc1cccnc1SC1CCC1)c2F (stereo not shown) [Example 111, [6-(2-cyclobutylsulfanyl-pyridin-3-ylmethoxy)-5,7-difluoro-2,3-dihydro-benzofuran-3-yl]-acetic acid]",> 6.70
3,"CCCSc1ncccc1COc1ccc(C2CC2C(=O)O)c(C)c1C (stereo not shown) [Example 112, 2-[2,3-dimethyl-4-(2-propylsulfanyl-pyridin-3-ylmethoxy)-phenyl]-cyclopropane carboxylic acid]",< 4.70
4,"Cc1c(OCc2cccnc2SC2CCC2)ccc(C2CC2C(=O)O)c1C (stereo not shown) [Example 113, 2-[4-(2-cyclobutylsulfanyl-pyridin-3-ylmethoxy)-2,3-dimethyl-phenyl]-cyclopropane carboxylic acid]",< 4.70
5,"Cc1c(OCc2cccc(SC(C)C)n2)ccc(C2CC2C(=O)O)c1C (stereo not shown) [Example 114, 2-[4-(6-isopropylsulfanyl-pyridin-2-ylmethoxy)-2,3-dimethyl-phenyl]-cyclopropane carboxylic acid]",4.70 to 5.70
6,"O=C(O)C1CC1Cc1cc(F)c(OCc2cccc(SC3CCC3)n2)c(F)c1 (stereo not shown) [Example 115, 2-[4-(6-cyclobutylsulfanyl-pyridin-2-ylmethoxy)-3,5-difluoro-benzyl]-cyclopropane carboxylic acid]",> 6.70
7,"CC(C)Sc1ncccc1COc1c(F)cc(CC2CC2C(=O)O)cc1F (stereo not shown) [Example 116, 2-[3,5-difluoro-4-(2-isopropylsulfanyl-pyridin-3-ylmethoxy)-benzyl]-cyclopropane carboxylic acid]",5.70 to 6.70
8,"O=C(O)CC1CC1c1ccc(OCc2cccc(SC3CCCC3)n2)c(F)c1 (stereo not shown) [Example 120, {2-[4-(6-cyclopentylsulfanyl-pyridin-2-ylmethoxy)-3-fluoro-phenyl]-cyclopropyl}-acetic acid]",5.70 to 6.70
9,"CCCSc1ncccc1COc1ccc(C2CC2CC(=O)O)cc1F (stereo not shown) [Example 121, {2-[3-fluoro-4-(2-propylsulfanyl-pyridin-3-ylmethoxy)-phenyl]-cyclopropyl}-acetic acid]",> 6.70
10,"O=C(O)Cc1coc2c(F)c(OCc3cccnc3SC3CCCC3)c(F)cc12 [Example 122, [6-(2-cyclopentylsulfanyl-pyridin-3-ylmethoxy)-5,7-difluoro-benzofuran-3-yl]-acetic acid]",> 6.70
11,"O=C(O)CC1COc2c1cc(F)c(OCc1cccnc1SC1CCCC1)c2F (stereo not shown) [Example 123, [6-(2-cyclopentylsulfanyl-pyridin-3-ylmethoxy)-5,7-difluoro-2,3-dihydro-benzofuran-3-yl]-acetic acid]",> 6.70
12,"O=C(O)C1CC1c1ccc(OCc2cccnc2SCC2CC2)c(Cl)c1 (stereo not shown) [Example 127, 2-[3-chloro-4-(2-cyclopropylmethylsulfanyl-pyridin-3-ylmethoxy)-phenyl]-cyclopropane carboxylic acid]",> 6.70
13,"O=C(O)C1CC1c1ccc(OCc2cccc(SC3CCC3)n2)c(Cl)c1 (stereo not shown) [Example 132, 2-[3-chloro-4-(6-cyclobutylsulfanyl-pyridin-2-ylmethoxy)-phenyl]-cyclopropane carboxylic acid]",> 6.70
14,"CCCSc1ncccc1COc1c(F)cc(C2CC2C(=O)O)cc1F (stereo not shown) [Example 139, 2-[3,5-difluoro-4-(2-propylsulfanyl-pyridin-3-ylmethoxy)-phenyl]-cyclopropane carboxylic acid]",> 6.70
15,"CC(C)Sc1cccc(COc2ccc(CCC(=O)O)cc2Cl)n1 [Example 141, 3-[3-chloro-4-(6-isopropylsulfanyl-pyridin-2-ylmethoxy)-phenyl]-propionic acid]",> 6.70

# Same assay, conditions: CHO-K1 cells expressing Ga16 and hGPR120; Calcium 5 dye fluorescence; numeric value
row,SMILES,pEC50
1,"CC(Cc1ccc(OCc2cccnc2SC2CCC2)c(Cl)c1)C(=O)O (stereo not shown) [Example 95, 3-[3-chloro-4-(2-cyclobutylsulfanyl-pyridin-3-ylmethoxy)-phenyl]-2-methyl-propionic acid]",7.06
2,"CCCSc1ncccc1COc1c(F)cc(CC2CC2C(=O)O)cc1F (stereo not shown) [Example 117, 2-[3,5-difluoro-4-(2-propylsulfanyl-pyridin-3-ylmethoxy)-benzyl]-cyclopropane carboxylic acid]",6.97
3,"Cc1c(OCc2cccnc2SC2CCCC2)ccc2c(CC(=O)O)coc12 [Example 118, [6-(2-cyclopentylsulfanyl-pyridin-3-ylmethoxy)-7-methyl-benzofuran-3-yl]-acetic acid]",6.87
4,"CC(C)Sc1ncccc1COc1ccc(C2CC2C(=O)O)cc1Cl (stereo not shown) [Example 126, 2-[3-chloro-4-(2-isopropylsulfanyl-pyridin-3-ylmethoxy)-phenyl]-cyclopropane carboxylic acid]",7.04
5,"O=C(O)C1CC1c1ccc(OCc2cccc(SCC3CC3)n2)c(Cl)c1 (stereo not shown) [Example 128, 2-[3-chloro-4-(6-cyclopropylmethylsulfanyl-pyridin-2-ylmethoxy)-phenyl]-cyclopropane carboxylic acid]",7.38
6,"CC(C)Sc1ncccc1COc1c(F)cc(C2CC2C(=O)O)cc1F (stereo not shown) [Example 138, 2-[3,5-difluoro-4-(2-isopropylsulfanyl-pyridin-3-ylmethoxy)-phenyl]-cyclopropane carboxylic acid]",7.25
